From ChEMBL document CHEMBL4152232, “Design, synthesis and pharmacological evaluation of ALK and Hsp90 dual inhibitors bearing resorcinol and 2,4-diaminopyrimidine motifs” (Eur J Med Chem, 2018)
pIC50: −log10 of the molar value. The source made the active and inactive calls. The rule behind the calls is not given here.

What was measured:
[1] = target: Heat shock protein HSP 90-alpha (Homo sapiens, UniProt P07900); assay: Inhibition of FITC-labeled geldanamycin binding to recombinant HSP90alpha (unknown origin) after 1 hr by fluorescence polarization assay
NCI-H3122 = assay: Antiproliferative activity against human NCI-H3122 cells after 72 hrs by SRB assay; type: functional, cell-based; settings: NCI-H3122, 72 h
[2] = target: ALK tyrosine kinase receptor (Homo sapiens, UniProt Q9UM73); assay: Inhibition of recombinant ALK (unknown origin) using poly (Glu,Tyr)4:1 as substrate after 60 mins by ELISA
Chain of ALK tyrosine kinase receptor (Homo sapiens, UniProt Q9UM73) (Q9UM73 whole entry): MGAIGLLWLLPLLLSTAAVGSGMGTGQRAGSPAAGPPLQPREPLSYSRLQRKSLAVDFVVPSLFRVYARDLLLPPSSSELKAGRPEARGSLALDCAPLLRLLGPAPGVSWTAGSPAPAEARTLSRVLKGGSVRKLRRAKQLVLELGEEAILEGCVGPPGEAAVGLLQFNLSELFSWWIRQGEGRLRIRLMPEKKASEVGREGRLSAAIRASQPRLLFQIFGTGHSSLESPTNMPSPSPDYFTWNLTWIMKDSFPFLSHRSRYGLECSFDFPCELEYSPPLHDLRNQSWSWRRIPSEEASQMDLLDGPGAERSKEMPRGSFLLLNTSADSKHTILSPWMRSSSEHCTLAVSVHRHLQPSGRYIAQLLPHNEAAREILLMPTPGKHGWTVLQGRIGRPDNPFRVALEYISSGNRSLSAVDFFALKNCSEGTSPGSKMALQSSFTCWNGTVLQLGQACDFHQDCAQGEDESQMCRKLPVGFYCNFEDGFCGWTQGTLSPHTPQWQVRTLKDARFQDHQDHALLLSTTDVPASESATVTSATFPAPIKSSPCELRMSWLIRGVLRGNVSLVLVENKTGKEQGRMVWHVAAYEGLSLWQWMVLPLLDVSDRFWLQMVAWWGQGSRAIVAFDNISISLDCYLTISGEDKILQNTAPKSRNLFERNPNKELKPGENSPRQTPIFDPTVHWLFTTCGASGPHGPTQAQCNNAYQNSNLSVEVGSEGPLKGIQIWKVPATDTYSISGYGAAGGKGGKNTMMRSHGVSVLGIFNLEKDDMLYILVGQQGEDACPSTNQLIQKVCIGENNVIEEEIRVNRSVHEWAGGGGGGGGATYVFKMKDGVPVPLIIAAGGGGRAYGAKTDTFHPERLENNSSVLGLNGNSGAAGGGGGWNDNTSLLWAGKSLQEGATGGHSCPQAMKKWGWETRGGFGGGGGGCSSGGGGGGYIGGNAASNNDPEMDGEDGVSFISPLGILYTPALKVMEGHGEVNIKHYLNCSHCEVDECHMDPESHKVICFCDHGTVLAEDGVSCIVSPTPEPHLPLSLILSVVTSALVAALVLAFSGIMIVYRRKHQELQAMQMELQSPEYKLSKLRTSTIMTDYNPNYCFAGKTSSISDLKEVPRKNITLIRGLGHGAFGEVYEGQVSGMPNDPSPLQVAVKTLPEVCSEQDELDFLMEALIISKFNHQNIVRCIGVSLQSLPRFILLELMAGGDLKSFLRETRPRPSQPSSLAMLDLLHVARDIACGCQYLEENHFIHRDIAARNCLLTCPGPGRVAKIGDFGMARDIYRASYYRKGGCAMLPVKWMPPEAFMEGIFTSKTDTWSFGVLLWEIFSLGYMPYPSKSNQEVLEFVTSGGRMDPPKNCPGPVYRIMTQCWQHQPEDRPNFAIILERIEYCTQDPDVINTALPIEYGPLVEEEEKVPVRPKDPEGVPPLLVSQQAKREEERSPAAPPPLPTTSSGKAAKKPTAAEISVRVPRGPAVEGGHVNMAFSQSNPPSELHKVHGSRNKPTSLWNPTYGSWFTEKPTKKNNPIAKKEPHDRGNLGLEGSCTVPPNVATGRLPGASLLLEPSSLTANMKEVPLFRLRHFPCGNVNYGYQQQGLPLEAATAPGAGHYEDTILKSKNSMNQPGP

[3] = target: T1, Heat shock protein HSP90 (Homo sapiens) (UniProt P07900+P08238); assay: Inhibition of Hsp90 in human NCI-H3122 cells assessed as decrease in ALK phosphorylation at Tyr1278 residues up to 1000 nM after 24 hrs by Western blot analysis; type: cell-based
[4] = target: T1, Heat shock protein HSP90 (Homo sapiens); assay: Inhibition of Hsp90 in human NCI-H3122 cells assessed as upregulation of Hsp70 after 24 hrs by Western blot analysis; type: cell-based
[5] = target: ALK tyrosine kinase receptor (Homo sapiens, UniProt Q9UM73, L1196M); assay: Inhibition of ALK L1196M mutant (unknown origin) using poly (Glu,Tyr)4:1 as substrate after 60 mins by ELISA
Chain of ALK tyrosine kinase receptor (Homo sapiens, UniProt Q9UM73, L1196M) (Q9UM73 19-1620 L1196M limits assumed): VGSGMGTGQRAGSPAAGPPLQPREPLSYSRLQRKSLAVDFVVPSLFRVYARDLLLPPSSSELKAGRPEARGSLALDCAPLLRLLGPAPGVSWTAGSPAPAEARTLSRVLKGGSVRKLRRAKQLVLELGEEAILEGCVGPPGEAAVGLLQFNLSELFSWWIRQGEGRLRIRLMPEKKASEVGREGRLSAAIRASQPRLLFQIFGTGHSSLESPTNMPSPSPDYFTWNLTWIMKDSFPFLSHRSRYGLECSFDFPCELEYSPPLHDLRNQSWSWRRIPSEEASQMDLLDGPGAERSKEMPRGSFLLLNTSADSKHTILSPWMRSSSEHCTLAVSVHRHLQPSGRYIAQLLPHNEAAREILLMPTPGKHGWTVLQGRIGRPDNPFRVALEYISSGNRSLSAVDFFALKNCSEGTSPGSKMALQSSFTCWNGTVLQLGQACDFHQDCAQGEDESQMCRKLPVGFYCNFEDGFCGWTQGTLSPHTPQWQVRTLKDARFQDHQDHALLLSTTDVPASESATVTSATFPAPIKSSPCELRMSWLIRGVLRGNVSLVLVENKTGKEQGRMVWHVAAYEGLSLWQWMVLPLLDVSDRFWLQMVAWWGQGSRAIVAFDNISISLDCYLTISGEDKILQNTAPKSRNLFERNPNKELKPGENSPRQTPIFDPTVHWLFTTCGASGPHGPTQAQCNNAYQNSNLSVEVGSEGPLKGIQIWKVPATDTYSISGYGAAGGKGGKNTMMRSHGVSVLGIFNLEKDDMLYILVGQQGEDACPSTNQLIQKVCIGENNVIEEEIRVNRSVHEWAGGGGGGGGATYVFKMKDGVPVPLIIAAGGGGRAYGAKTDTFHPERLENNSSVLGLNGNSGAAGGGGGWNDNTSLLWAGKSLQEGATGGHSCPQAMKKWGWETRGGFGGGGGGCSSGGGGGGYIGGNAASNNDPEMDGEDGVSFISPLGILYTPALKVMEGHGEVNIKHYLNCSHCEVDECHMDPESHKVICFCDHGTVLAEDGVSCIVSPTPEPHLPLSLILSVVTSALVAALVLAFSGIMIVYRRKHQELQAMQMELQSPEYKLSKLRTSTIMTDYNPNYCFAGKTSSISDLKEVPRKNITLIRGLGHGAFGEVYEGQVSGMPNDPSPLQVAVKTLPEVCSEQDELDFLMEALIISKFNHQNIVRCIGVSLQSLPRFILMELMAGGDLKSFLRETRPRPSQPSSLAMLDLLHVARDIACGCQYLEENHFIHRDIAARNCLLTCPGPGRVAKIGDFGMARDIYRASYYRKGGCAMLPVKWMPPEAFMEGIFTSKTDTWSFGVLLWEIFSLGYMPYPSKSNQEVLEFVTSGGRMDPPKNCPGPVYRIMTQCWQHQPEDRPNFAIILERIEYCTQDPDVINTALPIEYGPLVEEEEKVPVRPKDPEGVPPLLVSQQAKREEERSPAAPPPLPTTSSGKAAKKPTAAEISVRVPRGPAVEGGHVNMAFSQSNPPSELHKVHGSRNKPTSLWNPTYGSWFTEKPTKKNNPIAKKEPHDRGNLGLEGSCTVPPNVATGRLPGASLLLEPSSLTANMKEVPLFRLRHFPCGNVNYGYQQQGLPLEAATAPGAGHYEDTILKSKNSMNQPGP

[6] = target: T1, Heat shock protein HSP90 (Homo sapiens); assay: Inhibition of Hsp90 in human NCI-H3122 cells assessed as decrease in ERK1/2 phosphorylation up to 1000 nM after 24 hrs by Western blot analysis; type: cell-based
[7] = target: T1, Heat shock protein HSP90 (Homo sapiens); assay: Inhibition of Hsp90 in human NCI-H3122 cells assessed as decrease in AKT phosphorylation at Ser473 residues up to 1000 nM after 24 hrs by Western blot analysis; type: cell-based
NCI-N87 = assay: Antiproliferative activity against human NCI-N87 cells after 72 hrs by SRB assay; type: functional, cell-based; settings: NCI-N87, 72 h
MDA-MB-231 = assay: Antiproliferative activity against human MDA-MB-231 cells after 72 hrs by SRB assay; type: functional, cell-based; settings: MDA-MB-231, 72 h
EBC-1 = assay: Antiproliferative activity against human EBC1 cells after 72 hrs by SRB assay; type: functional, cell-based; settings: EBC-1, 72 h
NCI-H460 = assay: Antiproliferative activity against human NCI-H460 cells after 72 hrs by SRB assay; type: functional, cell-based; settings: NCI-H460, 72 h
U-87 MG = assay: Antiproliferative activity against human U87MG cells after 72 hrs by SRB assay; type: functional, cell-based, U-87MG ATCC
DU-145 = assay: Antiproliferative activity against human DU145 cells after 72 hrs by SRB assay; type: functional, cell-based; settings: DU-145, 72 h
[8] = Antiproliferative activity against human EBC1/SR cells after 72 hrs by SRB assay; type: functional, cell-based
HCT-116 = assay: Antiproliferative activity against human HCT116 cells after 72 hrs by SRB assay; type: functional, cell-based; settings: HCT-116, 72 h
A549 = assay: Antiproliferative activity against human A549 cells after 72 hrs by SRB assay; type: functional, cell-based; settings: A549, 72 h
BT-474 = assay: Antiproliferative activity against human BT474 cells after 72 hrs by SRB assay; type: functional, cell-based; settings: BT-474, 72 h
[9] = target: ALK tyrosine kinase receptor (Homo sapiens, UniProt Q9UM73, G1202R); assay: Inhibition of ALK G1202R mutant (unknown origin) using poly (Glu,Tyr)4:1 as substrate after 60 mins by ELISA
Chain of ALK tyrosine kinase receptor (Homo sapiens, UniProt Q9UM73, G1202R) (Q9UM73 19-1620 G1202R limits assumed): as the sequence (Q9UM73 19-1620 L1196M limits assumed) above, with M1178L, G1184R counted along it

COc1ccc(NC(=O)CNC(=O)CN2CCN(Cc3ccc4c(c3)CN(C(=O)c3cc(C(C)C)c(O)cc3O)C4)CC2)cc1Nc1ncc(Cl)c(Nc2ccccc2S(=O)(=O)C(C)C)n1 showed a pIC50 [1] of 7.33, a pIC50 (NCI-H3122) of 6.76 and a pIC50 [2] of 8.39.

In the case of CCNC(=O)c1noc(-c2cc(C(C)C)c(O)cc2O)c1-c1ccc(C(=O)NCC(=O)Nc2ccc(OC)c(Nc3ncc(Cl)c(Nc4ccccc4S(=O)(=O)C(C)C)n3)c2)cc1, the pIC50 [1] was under 6.00, the pIC50 (NCI-H3122) was 6.80 and the pIC50 [2] was 7.08.

For COc1ccc(NC(=O)CN2CCN(Cc3ccc4c(c3)CN(C(=O)c3cc(C(C)C)c(O)cc3O)C4)CC2)cc1Nc1ncc(Cl)c(Nc2ccccc2S(=O)(=O)C(C)C)n1, the pIC50 [1] was 7.40, the inhibition [3] was “Active” and the inhibition [4] was “Dose-dependent effect”. For the same compound, the pIC50 [5] was 8.22, the pIC50 (NCI-H3122) was 7.89 and the inhibition [6] was “Active”. The inhibition [7] was “Active” and the pIC50 [2] was 8.01.

COc1ccc(Nc2ncc(Cl)c(Nc3ccccc3S(=O)(=O)C(C)C)n2)cc1NC(=O)CNC(=O)c1noc(-c2cc(C(C)C)c(O)cc2O)c1-c1ccc(CN2CCOCC2)cc1 showed a pIC50 [1] of under 6.00, a pIC50 (NCI-H3122) of 6.50 and a pIC50 [2] of 6.02.

For CCNC(=O)c1noc(-c2cc(C(C)C)c(O)cc2O)c1-c1ccc(CN2CCOCC2)cc1 [LUMINESPIB], the pIC50 (NCI-N87) was 7.08, the pIC50 (MDA-MB-231) was 7.68 and the pIC50 (EBC-1) was 7.89. The pIC50 (NCI-H460) was 7.64, the pIC50 (U-87 MG) was 7.51 and the pIC50 (NCI-H3122) was 7.91. The pIC50 (DU-145) was 7.68, the pIC50 [8] was 7.52 and the pIC50 (HCT-116) was 7.80. The pIC50 (A549) was 7.22 and the pIC50 (BT-474) was 7.85.

Work on CCNC(=O)c1noc(-c2cc(C(C)C)c(O)cc2O)c1-c1ccc(CNCC(=O)Nc2ccc(OC)c(Nc3ncc(Cl)c(Nc4ccccc4S(=O)(=O)C(C)C)n3)c2)cc1 yielded a pIC50 [1] of 6.59, a pIC50 (NCI-H3122) of 7.24 and a pIC50 [2] of 7.62.

For CCNC(=O)c1noc(-c2cc(C(C)C)c(O)cc2O)c1-c1ccc(CNCC(=O)Nc2cccc(Nc3ncc(Cl)c(Nc4ccccc4S(=O)(=O)C(C)C)n3)c2)cc1, the pIC50 [1] was 6.43, the pIC50 (NCI-H3122) was 6.85 and the pIC50 [2] was 7.99.

With CC(C)c1cc(C(=O)N2Cc3ccc(CN4CCN(C)CC4)cc3C2)c(O)cc1O [ONALESPIB] the pIC50 [1] was 7.87 and the pIC50 (NCI-H3122) was 7.28.

With CC(C)c1cc(-c2onc(C(=O)NCC(=O)Nc3cccc(Nc4ncc(Cl)c(Nc5ccccc5S(=O)(=O)C(C)C)n4)c3)c2-c2ccc(CN3CCOCC3)cc2)c(O)cc1O the pIC50 [1] was under 6.00, the pIC50 (NCI-H3122) was 6.35 and the pIC50 [2] was 7.27.

In the case of CCNC(=O)c1noc(-c2cc(C(C)C)c(O)cc2O)c1-c1ccc(C(=O)N2CCN(CC(=O)Nc3cccc(Nc4ncc(Cl)c(Nc5ccccc5S(=O)(=O)C(C)C)n4)c3)CC2)cc1, the pIC50 [1] was 6.91, the pIC50 (NCI-H3122) was 6.95 and the pIC50 [2] was 7.64.

CCNC(=O)c1noc(-c2cc(C(C)C)c(O)cc2O)c1-c1ccc(CN2CCN(CC(=O)NCC(=O)Nc3ccc(OC)c(Nc4ncc(Cl)c(Nc5ccccc5S(=O)(=O)C(C)C)n4)c3)CC2)cc1 gave a pIC50 (NCI-N87) of 6.64, a pIC50 [1] of 7.07 and a pIC50 (MDA-MB-231) of 6.87. The pIC50 (EBC-1) was 6.79, the pIC50 [9] was 7.44 and the pIC50 (NCI-H460) was 6.20. It also gave a pIC50 [5] of 8.06, a pIC50 (U-87 MG) of 6.69 and a pIC50 (NCI-H3122) of 7.34. The pIC50 (DU-145) was 6.44, the pIC50 [8] was 6.31 and the pIC50 (HCT-116) was 6.71. The pIC50 (A549) was 6.21, the pIC50 (BT-474) was 7.22 and the pIC50 [2] was 8.16.

Compound COc1ccc(NC(=O)CNC(=O)c2noc(-c3cc(C(C)C)c(O)cc3O)c2-c2ccc(CN3CCOCC3)cc2)cc1Nc1ncc(Cl)c(Nc2ccccc2S(=O)(=O)C(C)C)n1 has a pIC50 [1] of under 6.00, a pIC50 (NCI-H3122) of 6.23 and a pIC50 [2] of 6.97.

Work on CCNC(=O)c1noc(-c2cc(C(C)C)c(O)cc2O)c1-c1ccc(CN2CCN(CC(=O)Nc3ccc(OC)c(Nc4ncc(Cl)c(Nc5ccccc5S(=O)(=O)C(C)C)n4)c3)CC2)cc1 yielded a pIC50 (NCI-N87) of 6.30, a pIC50 [1] of 7.00 and a pIC50 (MDA-MB-231) of 6.98. The inhibition [3] was “Active”, the pIC50 (EBC-1) was 7.33 and the pIC50 [9] was 7.07. The inhibition [4] was “Dose-dependent effect”, the pIC50 (NCI-H460) was 6.63 and the pIC50 [5] was 8.21. For the same compound, the pIC50 (U-87 MG) was 6.63, the pIC50 (NCI-H3122) was 7.96 and the inhibition [6] was “Active”. For the same compound, the pIC50 (DU-145) was 6.64, the pIC50 [8] was 6.67 and the pIC50 (HCT-116) was 7.09. For the same compound, the inhibition [7] was “Active”, the pIC50 (A549) was 6.54 and the pIC50 (BT-474) was 7.28. The pIC50 [2] was 7.76.
